Data from the NIST ThermoML archive (doi:10.1016/j.jct.2015.01.015).
Numbers after ± are expanded uncertainties.

Tests used:
[1] = Crystal; DTA
[2] = Molar enthalpy of transition or fusion; details: Crystal; DSC

| Compound | Normal melting temperature [1] | Molar enthalpy of transition or fusion [2] |
| --- | --- | --- |
| COc1ccc2c(c1)c(CC(=O)O)c(C)n2C(=O)c1ccc(Cl)cc1 | 160.0 ± 1.1 °C | 9.06 ± 0.574 kcal/mol |
| NC(=O)c1cccnc1 [3-pyridinecarboxamide] | 128.6 ± 1.1 °C | 5.4 ± 0.335 kcal/mol |
